System: ZIKV human strain R116265
Assay: ZIKV vertical transmission in pregnant Ifnar1-/- mice
Assay type: in vivo
Conditions: 20 mg/kg i.p.
Method: Pregnant mice (at embryonic day (E) 12-14) were i.p. treated with ST087010 (20 mg/kg) or DMSO (control) 12 h before and 6, 24 and 48 after infection with ZIKV human strain R116265 (10^3 PFU/mouse). Viral titers were detected, by plaque assay, in sera (FIG. 9A), placenta (FIG. 9B), fetal brain (FIG. 9C), and amniotic fluid (FIG. 9D) at 5 days post infection (dpi). The data are expressed as mean±s.e.m. of mice in each group (n=5), and significant differences among different groups are shown. The detection limit is 25 PFU/ml (for sera and amniotic fluid), or 25 PFU/g (for placenta and fetal brain). Representative images of morphology of mouse uteri and fetuses at 5 dpi are shown. FIG. 9E depicts E17-19 uteri from pregnant mice challenged at E12-14. Fetal morphology (FIG. 9F) and fetal size (FIG. 9G) were detected. ZIKV or caspase-3 signals were measured in placentas by immunofluorescence staining (FIG. 9H). ZIKV and caspase-3 were stained with anti-ZIKV and anti-active caspase-3 antibodies, respectively. Nuclei were stained with DAPI. Representative images of immunofluorescence staining are shown. Magnification, 63×, and scale bar 10 μm.
ST087010 was evaluated for protection against ZIKV-caused fetal damage and death in pregnant Ifnar1^−/− mice. Briefly, groups of 5 pregnant mice (10- to 12-weeks old, E12-14) were injected intraperitoneally with ST087010 (20 mg/kg of body weight), or DMSO (control) 12 h before and 6, 24 and 48 h after i.p. infection with ZIKV (human strain R116265, 10^3 PFU). Five days post-infection, mice were sacrificed; viral titers were determined using plaque assay in sera, placenta, fetal brain and amniotic fluid, and uteri and fetuses were evaluated for morphological and size changes. Placenta was also assessed for apoptosis and viral replication by immunofluorescence staining.
Immunofluorescence staining was carried out to detect ZIKV and caspase-3 signals in ZIKV-infected mouse tissues. […] The slides were analyzed using a confocal microscope (Zeiss LSM 880) and ZEN software, and fluorescent signals were quantified by ImageJ software. […]

Structure (SMILES): Cc1cc2c(C(C)C)c(O)c(O)c(/C=N/n3c(=O)[nH][nH]c3=O)c2c(O)c1-c1c(C)cc2c(C(C)C)c(O)c(O)c(/C=N/n3c(=O)[nH][nH]c3=O)c2c1O [ST087010]
- ZIKV+ or caspase-3 signals in placental tissues (ZIKV R116265, immunofluorescence, vs DMSO): undetectable or diminished
- Condition of fetuses and uteri morphology (pregnant mice E12-14, ZIKV R116265 10^3 PFU, 5 dpi): all in good condition
- Viral titers in sera, placenta, fetal brain and amniotic fluid (pregnant mice E12-14, ZIKV R116265 10^3 PFU, 5 dpi, vs DMSO): significantly reduced

Reference: patent US20220313651A1, “INHIBITORS OF ZIKA VIRUS INFECTION” (priority 2019, published 2022)
